Source: ChEMBL document CHEMBL5055649, “Synthesis and biological evaluation of 3,5-substituted pyrazoles as possible antibacterial agents” (Bioorg Med Chem, 2021)
Converted amounts (≈) assume the structure as drawn. The source made the active and inactive calls. The calls are words filed in the database; no cut-off is given here.

Assays:
[1] = system: Escherichia coli; test: Antibacterial activity against Escherichia coli MG1655 assessed as bacterial growth inhibition measured after 20 hrs by CLSI protocol based broth microdilution method; format: functional
[2] = system: Staphylococcus aureus; test: Antibacterial activity against Staphylococcus aureus ATCC 25923 assessed as bacterial growth inhibition measured after 20 hrs by CLSI protocol based broth microdilution method; format: functional
[3] = system: Bacillus subtilis; test: Bacteriostatic activity against Bacillus subtilis 168 assessed as reduction in bacterial growth measured after 20 hrs by CLSI protocol based broth microdilution method; format: functional, organism-based
[4] = system: Staphylococcus aureus; test: Bacteriostatic activity against Staphylococcus aureus ATCC 25923 assessed as reduction in bacterial growth measured after 20 hrs by CLSI protocol based broth microdilution method; format: functional, organism-based
[5] = system: 3T3-L1; test: Cytotoxicity against mouse 3T3-L1 cells assessed as reduction in cell viability at 50 ug/ml measured after 24 to 72 hrs y MTT assay; format: cell-based; settings: time 24-72 hrs, dose 50 µg/ml
[6] = system: Bacillus subtilis; test: Induction of morphological changes in Bacillus subtilis 168 assessed as immediate cell lysis at >8 ug/ml incubated for 120 mins by phase-contrast microscopic analysis; format: functional, organism-based; settings: dose > 8.0 µg/ml
[7] = system: Bacillus subtilis; test: Induction of morphological changes in Bacillus subtilis 168 assessed as cell lysis at 2.5 to 3.5 times MIC incubated for 1 hr by phase-contrast microscopic analysis; format: functional, organism-based
[8] = system: Bacillus subtilis; test: Induction of morphological changes in Bacillus subtilis 168 assessed as cell lysis at 2.5 to 3.5 times MIC incubated for 2 hrs by phase-contrast microscopic analysis; format: functional, organism-based
[9] = system: Bacillus subtilis; test: Induction of morphological changes Bacillus subtilis 168 assessed as morphological changes by measuring cell lysis with cell debris and ghost cells at 3 times MIC incubated for 3 hr by phase-contrast microscopic analysis; format: functional, organism-based
[10] = system: Bacillus subtilis; test: Induction of morphological changes in Bacillus subtilis 168 assessed as bulbous distortion at 2.5 to 2.75 times MIC incubated for 3 hr by phase-contrast microscopic analysis; format: functional, organism-based
[11] = system: Bacillus subtilis; test: Antibacterial activity against Bacillus subtilis 168 assessed as bacterial growth inhibition measured after 20 hrs by CLSI protocol based broth microdilution method; format: functional
[12] = Cytotoxicity against mouse 3T3-L1 cells assessed as cell viability at 25 ug/ml measured up to 72 hrs y MTT assay relative to control; format: cell-based; settings: at 25 µg/mL, read-out: Activity
[13] = system: Bacillus subtilis; test: Antibacterial activity against Bacillus subtilis 168 assessed as diameter of zone of inhibition by agar plate diffusion method; format: functional
[14] = system: Escherichia coli; test: Antibacterial activity against Escherichia coli assessed as zone of inhibition by plate agar diffusion method; format: functional

Row | SMILES | MIC95 [1] | MIC95 [2] | other results
1 | COc1cc(-c2cc(-c3ccc(-c4ccc(Cl)cc4)cc3)n[nH]2)ccc1OCc1ccccc1 | > 128 µg/mL | > 128 µg/mL | –
2 | Clc1ccc(-c2ccc(-c3cc(-c4ccc(OCc5ccccc5)cc4)[nH]n3)cc2)cc1 | > 128 µg/mL | > 128 µg/mL | –
3 | COc1ccc(-c2cc(-c3ccc(-c4ccc(C(C)(C)C)cc4)cc3)n[nH]2)cc1OC | > 128 µg/mL | > 128 µg/mL | –
4 | COc1ccc(-c2cc(-c3ccc(-c4ccc(Cl)cc4)cc3)n[nH]2)c(OC)c1 | > 128 µg/mL | > 128 µg/mL | –
5 | COc1ccc(-c2cc(-c3ccc(-c4ccc(Cl)cc4)cc3)n[nH]2)cc1 | > 128 µg/mL | > 128 µg/mL | –
6 | COc1cc(-c2cc(-c3ccc(-c4ccccc4)cc3)n[nH]2)ccc1O | > 128 µg/mL | 8 µg/mL (≈ 23.4 µM) | Activity [3]: Active; Activity [4]: Active; Activity [5]: Non-Toxic; Activity [6]: inactive; Activity [7]: Active; Activity [8]: Active; Activity [9]: Active; Activity [10]: Active; MIC [11]: 8 µg/mL (≈ 23.4 µM)
7 | COc1ccc(-c2cc(-c3ccc(-c4ccccc4)cc3)n[nH]2)cc1 | > 128 µg/mL | > 128 µg/mL | –
8 | COc1ccc(-c2cc(-c3ccc(-c4ccc(Cl)cc4)cc3)n[nH]2)cc1OC | > 128 µg/mL | > 128 µg/mL | –
9 | COc1ccc(OC)c(-c2cc(-c3ccc(-c4ccc(C(C)(C)C)cc4)cc3)n[nH]2)c1 | > 128 µg/mL | > 128 µg/mL | –
10 | COc1ccc(-c2cc(-c3ccc(-c4ccc(C(C)(C)C)cc4)cc3)n[nH]2)cc1 | > 128 µg/mL | > 128 µg/mL | –
11 | COc1ccc(OC)c(-c2cc(-c3ccc(-c4ccc(Cl)cc4)cc3)n[nH]2)c1 | > 128 µg/mL | > 128 µg/mL | –
12 | COc1cc(-c2cc(-c3ccc(C(C)(C)C)cc3)n[nH]2)ccc1O | > 128 µg/mL | 32 µg/mL (≈ 99.3 µM) | Activity [3]: Active; Activity [4]: Active; viability at 72 h, 25 ug/ml [12]: 85%; MIC [11]: 16 µg/mL (≈ 49.6 µM)
13 | Clc1ccc(-c2ccc(-c3cc(-c4cccc(OCc5ccccc5)c4)[nH]n3)cc2)cc1 | > 128 µg/mL | > 128 µg/mL | –
14 | COc1ccc(-c2cc(-c3ccc(-c4ccccc4)cc3)n[nH]2)cc1OC | > 128 µg/mL | > 128 µg/mL | diameter of the inhibition zone (DIZ) [13]: 13 mm; diameter of the inhibition zone (DIZ) [14]: 20 mm
15 | Oc1cccc(-c2cc(-c3ccc(-c4ccccc4)cc3)n[nH]2)c1 | > 128 µg/mL | > 128 µg/mL | –
16 | COc1ccc(OC)c(-c2cc(-c3ccc(-c4ccccc4)cc3)n[nH]2)c1 | > 128 µg/mL | > 128 µg/mL | –
17 | CC(C)(C)c1ccc(-c2ccc(-c3cc(-c4ccc(OCc5ccccc5)cc4)[nH]n3)cc2)cc1 | > 128 µg/mL | > 128 µg/mL | –
